Results published in ChEMBL document CHEMBL5505966, “Synthesis and pharmacological characterization of conformationally restricted 2-amino-Adipic acid analogs and carboxycyclopropyl glycines as selective metabotropic glutamate 2 receptor agonists” (Eur J Med Chem, 2024).
Values belong to the compound of their own block, whether it stands above or below them. Activity calls are given as the source filed them. No cut-off for these calls is given here.

Tests used:
[1] = target: Metabotropic glutamate receptor 3 (Homo sapiens, UniProt Q14832); test: Agonist activity at human recombinant mGluR3 receptor assessed as inhibition of forskolin-stimulated [3H]cAMP accumulation incubated for 20 mins by SPA kit analysis; assay type: functional
[2] = target: Metabotropic glutamate receptor 5 (Rattus norvegicus) (UniProt P31424); test: Antagonist activity at rat mGluR5 receptor expressed in HEK293 cells by IP-1 HTRF assay; assay type: functional, cell-based
[3] = target: Metabotropic glutamate receptor 2 (Rattus norvegicus, UniProt P31421); test: Agonist activity at rat mGluR2 receptor expressed in HEK293 cells by IP-1 HTRF assay; assay type: functional, cell-based
[4] = target: Metabotropic glutamate receptor 3 (Rattus norvegicus, UniProt P31422); test: Agonist activity at rat mGluR3 receptor expressed in HEK293 cells by IP-1 HTRF assay; assay type: functional, cell-based
[5] = target: Metabotropic glutamate receptor 3 (Rattus norvegicus) (UniProt P31422); test: Antagonist activity at rat mGluR3 receptor expressed in HEK293 cells by IP-1 HTRF assay; assay type: functional, cell-based
[6] = target: Metabotropic glutamate receptor 1 (Rattus norvegicus, UniProt P23385); test: Agonist activity at rat mGluR1 receptor expressed in HEK293 cells by IP-1 HTRF assay; assay type: functional, cell-based
[7] = target: Metabotropic glutamate receptor 1 (Rattus norvegicus) (UniProt P23385); test: Antagonist activity at rat mGluR1 receptor expressed in HEK293 cells by IP-1 HTRF assay; assay type: functional, cell-based
[8] = target: Metabotropic glutamate receptor 4 (Rattus norvegicus) (UniProt P31423); test: Antagonist activity at rat mGluR4 receptor expressed in HEK293 cells by IP-1 HTRF assay; assay type: functional, cell-based
[9] = target: Metabotropic glutamate receptor 6 (Rattus norvegicus) (UniProt P35349); test: Antagonist activity at rat mGluR6 receptor expressed in HEK293 cells by IP-1 HTRF assay; assay type: functional, cell-based
[10] = target: Metabotropic glutamate receptor 7 (Rattus norvegicus) (UniProt P35400); test: Antagonist activity at rat mGluR7 receptor expressed in HEK293 cells by IP-1 HTRF assay; assay type: functional, cell-based
[11] = target: Metabotropic glutamate receptor 8 (Rattus norvegicus, UniProt P70579); test: Agonist activity at rat mGluR8 receptor expressed in HEK293 cells by IP-1 HTRF assay; assay type: functional, cell-based
[12] = target: Metabotropic glutamate receptor 6 (Rattus norvegicus, UniProt P35349); test: Agonist activity at rat mGluR6 receptor expressed in HEK293 cells by IP-1 HTRF assay; assay type: functional, cell-based
[13] = target: Metabotropic glutamate receptor 5 (Rattus norvegicus, UniProt P31424); test: Agonist activity at rat mGluR5 receptor expressed in HEK293 cells by IP-1 HTRF assay; assay type: functional, cell-based
[14] = target: Metabotropic glutamate receptor 2 (Rattus norvegicus) (UniProt P31421); test: Antagonist activity at rat mGluR2 receptor expressed in HEK293 cells by IP-1 HTRF assay; assay type: functional, cell-based
[15] = target: Metabotropic glutamate receptor 8 (Rattus norvegicus) (UniProt P70579); test: Antagonist activity at rat mGluR8 receptor expressed in HEK293 cells by IP-1 HTRF assay; assay type: functional, cell-based
[16] = target: Metabotropic glutamate receptor 4 (Rattus norvegicus, UniProt P31423); test: Agonist activity at rat mGluR4 receptor expressed in HEK293 cells by IP-1 HTRF assay; assay type: functional, cell-based
[17] = target: Metabotropic glutamate receptor 7 (Rattus norvegicus, UniProt P35400); test: Agonist activity at rat mGluR7 receptor expressed in HEK293 cells by IP-1 HTRF assay; assay type: functional, cell-based
[18] = target: Metabotropic glutamate receptor 3 (Rattus norvegicus) (UniProt P31422); test: Agonist activity at rat mGluR3 receptor expressed in HEK293 cells at 3 uM by IP-1 HTRF assay; assay type: functional, cell-based; conditions: filed as agonist
[19] = target: Metabotropic glutamate receptor 2 (Homo sapiens, UniProt Q14416); test: Agonist activity at mGluR2 receptor (unknown origin); assay type: functional
[20] = target: Metabotropic glutamate receptor 8 (Rattus norvegicus) (UniProt P70579); test: Agonist activity at rat mGluR8 receptor expressed in HEK293 cells at 30 uM by IP-1 HTRF assay; assay type: functional, cell-based
[21] = target: Metabotropic glutamate receptor 4 (Rattus norvegicus) (UniProt P31423); test: Agonist activity at rat mGluR4 receptor expressed in HEK293 cells at 30 uM by IP-1 HTRF assay; assay type: functional, cell-based
Rattus norvegicus [22] = species: Rattus norvegicus; test: Selectivity ratio of EC50 for agonist activity at rat mGluR5 receptor expressed in HEK293 cells to EC50 for agonist activity at rat mGluR2 receptor expressed in HEK293 cells; assay type: cell-based
Rattus norvegicus [23] = species: Rattus norvegicus; test: Selectivity ratio of EC50 for agonist activity at rat mGluR8 receptor expressed in HEK293 cells to EC50 for agonist activity at rat mGluR2 receptor expressed in HEK293 cells; assay type: cell-based
Rattus norvegicus [24] = species: Rattus norvegicus; test: Selectivity ratio of EC50 for agonist activity at rat mGluR6 receptor expressed in HEK293 cells to EC50 for agonist activity at rat mGluR2 receptor expressed in HEK293 cells; assay type: cell-based
Rattus norvegicus [25] = species: Rattus norvegicus; test: Selectivity ratio of EC50 for agonist activity at rat mGluR7 receptor expressed in HEK293 cells to EC50 for agonist activity at rat mGluR2 receptor expressed in HEK293 cells; assay type: cell-based
[26] = target: Metabotropic glutamate receptor 7 (Rattus norvegicus) (UniProt P35400); test: Agonist activity at rat mGluR7 receptor expressed in HEK293 cells at 30 uM by IP-1 HTRF assay; assay type: functional, cell-based
Rattus norvegicus [27] = species: Rattus norvegicus; test: Selectivity ratio of EC50 for agonist activity at rat mGluR1 receptor expressed in HEK293 cells to EC50 for agonist activity at rat mGluR2 receptor expressed in HEK293 cells; assay type: cell-based
Rattus norvegicus [28] = species: Rattus norvegicus; test: Selectivity ratio of EC50 for agonist activity at rat mGluR3 receptor expressed in HEK293 cells to EC50 for agonist activity at rat mGluR2 receptor expressed in HEK293 cells; assay type: cell-based
Rattus norvegicus [29] = species: Rattus norvegicus; test: Selectivity ratio of EC50 for agonist activity at rat mGluR4 receptor expressed in HEK293 cells to EC50 for agonist activity at rat mGluR2 receptor expressed in HEK293 cells; assay type: cell-based
[30] = target: Metabotropic glutamate receptor 7 (Rattus norvegicus) (UniProt P35400); test: Agonist activity at rat mGluR7 receptor expressed in HEK293 cells at 100 uM by IP-1 HTRF assay; assay type: functional, cell-based
[31] = target: Metabotropic glutamate receptor 8 (Rattus norvegicus) (UniProt P70579); test: Agonist activity at rat mGluR8 receptor expressed in HEK293 cells at 100 uM by IP-1 HTRF assay; assay type: functional, cell-based
[32] = target: Metabotropic glutamate receptor 5 (Rattus norvegicus) (UniProt P31424); test: Agonist activity at rat mGluR5 receptor expressed in HEK293 cells at 100 uM by IP-1 HTRF assay; assay type: functional, cell-based
[33] = target: Metabotropic glutamate receptor 6 (Rattus norvegicus) (UniProt P35349); test: Agonist activity at rat mGluR6 receptor expressed in HEK293 cells at 100 uM by IP-1 HTRF assay; assay type: functional, cell-based
[34] = target: Metabotropic glutamate receptor 4 (Rattus norvegicus) (UniProt P31423); test: Agonist activity at rat mGluR4 receptor expressed in HEK293 cells at 100 uM by IP-1 HTRF assay; assay type: functional, cell-based
[35] = target: Metabotropic glutamate receptor 2 (Rattus norvegicus) (UniProt P31421); test: Agonist activity at rat mGluR2 receptor expressed in HEK293 cells at 100 uM by IP-1 HTRF assay; assay type: functional, cell-based
[36] = target: Metabotropic glutamate receptor 1 (Rattus norvegicus) (UniProt P23385); test: Agonist activity at rat mGluR1 receptor expressed in HEK293 cells at 100 uM by IP-1 HTRF assay; assay type: functional, cell-based
[37] = target: Metabotropic glutamate receptor 3 (Rattus norvegicus) (UniProt P31422); test: Agonist activity at rat mGluR3 receptor expressed in HEK293 cells at 100 uM by IP-1 HTRF assay; assay type: functional, cell-based

Metabotropic glutamate receptor 1, sequence (P23385 whole entry): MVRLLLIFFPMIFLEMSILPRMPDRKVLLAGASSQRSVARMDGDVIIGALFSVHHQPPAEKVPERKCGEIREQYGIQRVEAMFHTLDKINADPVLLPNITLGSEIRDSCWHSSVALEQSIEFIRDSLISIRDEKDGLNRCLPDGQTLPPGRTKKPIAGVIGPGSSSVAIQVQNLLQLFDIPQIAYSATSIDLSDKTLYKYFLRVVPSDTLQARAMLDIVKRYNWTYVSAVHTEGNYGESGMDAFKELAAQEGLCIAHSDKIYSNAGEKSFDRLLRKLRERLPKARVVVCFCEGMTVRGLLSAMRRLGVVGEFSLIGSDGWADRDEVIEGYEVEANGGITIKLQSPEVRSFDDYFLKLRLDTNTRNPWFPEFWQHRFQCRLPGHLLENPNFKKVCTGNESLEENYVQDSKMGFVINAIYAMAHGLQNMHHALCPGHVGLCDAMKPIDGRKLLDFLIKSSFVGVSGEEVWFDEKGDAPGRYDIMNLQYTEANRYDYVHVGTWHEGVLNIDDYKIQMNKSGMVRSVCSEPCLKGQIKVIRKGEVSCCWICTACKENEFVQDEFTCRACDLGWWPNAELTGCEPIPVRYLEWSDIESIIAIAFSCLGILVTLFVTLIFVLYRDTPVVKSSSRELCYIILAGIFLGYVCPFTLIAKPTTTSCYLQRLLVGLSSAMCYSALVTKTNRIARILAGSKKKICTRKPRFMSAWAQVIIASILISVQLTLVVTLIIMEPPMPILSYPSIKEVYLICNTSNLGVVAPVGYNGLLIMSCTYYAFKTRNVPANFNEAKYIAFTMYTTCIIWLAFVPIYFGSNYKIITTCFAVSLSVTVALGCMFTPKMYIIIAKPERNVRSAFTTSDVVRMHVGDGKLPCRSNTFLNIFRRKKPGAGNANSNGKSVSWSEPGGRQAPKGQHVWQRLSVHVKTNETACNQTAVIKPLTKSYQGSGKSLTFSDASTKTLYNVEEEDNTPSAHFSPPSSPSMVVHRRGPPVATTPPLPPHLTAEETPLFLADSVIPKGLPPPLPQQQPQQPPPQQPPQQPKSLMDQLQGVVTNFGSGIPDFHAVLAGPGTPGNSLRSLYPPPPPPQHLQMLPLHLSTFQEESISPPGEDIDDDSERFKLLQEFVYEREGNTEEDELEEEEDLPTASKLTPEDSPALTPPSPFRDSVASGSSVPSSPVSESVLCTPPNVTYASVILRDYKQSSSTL
Metabotropic glutamate receptor 4 (Rattus norvegicus), sequence (P31423 whole entry): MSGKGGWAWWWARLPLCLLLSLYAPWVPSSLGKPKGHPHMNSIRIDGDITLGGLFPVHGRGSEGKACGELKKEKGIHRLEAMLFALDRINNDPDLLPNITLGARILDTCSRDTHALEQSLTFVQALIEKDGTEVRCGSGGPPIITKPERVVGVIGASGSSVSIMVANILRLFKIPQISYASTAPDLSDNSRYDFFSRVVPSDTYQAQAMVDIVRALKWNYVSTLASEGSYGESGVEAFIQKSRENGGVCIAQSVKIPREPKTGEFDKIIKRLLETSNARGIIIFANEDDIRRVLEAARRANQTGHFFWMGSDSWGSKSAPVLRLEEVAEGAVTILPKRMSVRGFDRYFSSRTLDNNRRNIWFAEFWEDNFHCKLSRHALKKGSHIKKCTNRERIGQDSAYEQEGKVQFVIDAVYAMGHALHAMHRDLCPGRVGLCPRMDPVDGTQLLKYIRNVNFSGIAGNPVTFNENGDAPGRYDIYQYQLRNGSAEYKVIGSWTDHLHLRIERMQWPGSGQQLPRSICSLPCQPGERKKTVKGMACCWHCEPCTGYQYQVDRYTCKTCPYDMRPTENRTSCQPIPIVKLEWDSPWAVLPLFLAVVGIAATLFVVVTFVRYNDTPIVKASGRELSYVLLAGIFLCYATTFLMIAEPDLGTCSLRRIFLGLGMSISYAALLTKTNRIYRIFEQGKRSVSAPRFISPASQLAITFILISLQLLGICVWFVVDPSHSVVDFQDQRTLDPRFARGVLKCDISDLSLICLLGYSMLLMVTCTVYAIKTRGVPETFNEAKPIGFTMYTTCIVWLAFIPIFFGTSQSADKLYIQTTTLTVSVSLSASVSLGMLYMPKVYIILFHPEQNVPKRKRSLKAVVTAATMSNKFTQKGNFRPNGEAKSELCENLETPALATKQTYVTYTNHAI
Metabotropic glutamate receptor 6, sequence (P35349 whole entry): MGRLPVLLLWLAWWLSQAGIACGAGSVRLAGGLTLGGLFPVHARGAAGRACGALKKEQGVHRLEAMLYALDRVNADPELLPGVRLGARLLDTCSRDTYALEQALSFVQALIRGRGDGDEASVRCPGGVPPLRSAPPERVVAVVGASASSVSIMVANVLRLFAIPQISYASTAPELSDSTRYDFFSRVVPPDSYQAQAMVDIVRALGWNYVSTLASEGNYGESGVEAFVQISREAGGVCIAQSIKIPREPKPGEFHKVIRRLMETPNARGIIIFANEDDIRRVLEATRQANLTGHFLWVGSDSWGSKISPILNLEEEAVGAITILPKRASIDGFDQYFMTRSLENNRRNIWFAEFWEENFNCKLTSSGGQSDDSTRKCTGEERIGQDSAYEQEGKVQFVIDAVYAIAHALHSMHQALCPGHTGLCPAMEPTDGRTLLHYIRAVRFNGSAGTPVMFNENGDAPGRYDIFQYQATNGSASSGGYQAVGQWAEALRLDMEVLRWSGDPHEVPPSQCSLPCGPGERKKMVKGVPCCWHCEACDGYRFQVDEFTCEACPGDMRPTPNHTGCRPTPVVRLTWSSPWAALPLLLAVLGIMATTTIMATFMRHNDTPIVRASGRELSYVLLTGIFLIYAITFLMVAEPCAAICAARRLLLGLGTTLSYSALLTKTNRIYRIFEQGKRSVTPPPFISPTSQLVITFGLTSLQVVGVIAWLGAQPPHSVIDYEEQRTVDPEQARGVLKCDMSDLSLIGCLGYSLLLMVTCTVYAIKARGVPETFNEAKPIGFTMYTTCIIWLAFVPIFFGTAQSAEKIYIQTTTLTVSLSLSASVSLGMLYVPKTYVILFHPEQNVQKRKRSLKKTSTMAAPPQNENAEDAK
Metabotropic glutamate receptor 6 (Rattus norvegicus), sequence (P35349 whole entry): as above
Metabotropic glutamate receptor 2 (Rattus norvegicus), sequence (P31421 19-872 limits assumed): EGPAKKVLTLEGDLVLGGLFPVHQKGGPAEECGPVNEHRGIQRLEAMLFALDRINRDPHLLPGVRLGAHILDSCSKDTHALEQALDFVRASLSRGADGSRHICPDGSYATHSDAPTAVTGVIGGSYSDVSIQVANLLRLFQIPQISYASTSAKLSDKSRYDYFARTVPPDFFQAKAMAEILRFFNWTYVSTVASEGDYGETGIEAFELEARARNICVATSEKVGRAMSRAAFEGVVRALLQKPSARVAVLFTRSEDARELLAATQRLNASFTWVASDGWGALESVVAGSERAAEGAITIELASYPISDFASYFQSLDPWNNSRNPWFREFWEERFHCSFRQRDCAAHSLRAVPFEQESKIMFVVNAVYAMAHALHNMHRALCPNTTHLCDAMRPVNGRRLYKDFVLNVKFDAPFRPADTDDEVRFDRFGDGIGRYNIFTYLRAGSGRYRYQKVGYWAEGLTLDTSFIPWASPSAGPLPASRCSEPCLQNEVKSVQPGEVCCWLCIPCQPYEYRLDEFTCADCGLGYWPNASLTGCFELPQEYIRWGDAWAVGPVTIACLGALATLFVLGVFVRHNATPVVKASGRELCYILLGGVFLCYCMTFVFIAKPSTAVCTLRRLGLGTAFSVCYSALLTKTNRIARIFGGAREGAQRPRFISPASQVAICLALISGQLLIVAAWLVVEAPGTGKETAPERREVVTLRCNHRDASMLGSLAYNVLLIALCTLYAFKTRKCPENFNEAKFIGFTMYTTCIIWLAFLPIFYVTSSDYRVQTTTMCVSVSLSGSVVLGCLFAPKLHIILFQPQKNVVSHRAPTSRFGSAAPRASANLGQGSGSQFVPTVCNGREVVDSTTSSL
Metabotropic glutamate receptor 1 (Rattus norvegicus), sequence (P23385 19-1199 limits assumed): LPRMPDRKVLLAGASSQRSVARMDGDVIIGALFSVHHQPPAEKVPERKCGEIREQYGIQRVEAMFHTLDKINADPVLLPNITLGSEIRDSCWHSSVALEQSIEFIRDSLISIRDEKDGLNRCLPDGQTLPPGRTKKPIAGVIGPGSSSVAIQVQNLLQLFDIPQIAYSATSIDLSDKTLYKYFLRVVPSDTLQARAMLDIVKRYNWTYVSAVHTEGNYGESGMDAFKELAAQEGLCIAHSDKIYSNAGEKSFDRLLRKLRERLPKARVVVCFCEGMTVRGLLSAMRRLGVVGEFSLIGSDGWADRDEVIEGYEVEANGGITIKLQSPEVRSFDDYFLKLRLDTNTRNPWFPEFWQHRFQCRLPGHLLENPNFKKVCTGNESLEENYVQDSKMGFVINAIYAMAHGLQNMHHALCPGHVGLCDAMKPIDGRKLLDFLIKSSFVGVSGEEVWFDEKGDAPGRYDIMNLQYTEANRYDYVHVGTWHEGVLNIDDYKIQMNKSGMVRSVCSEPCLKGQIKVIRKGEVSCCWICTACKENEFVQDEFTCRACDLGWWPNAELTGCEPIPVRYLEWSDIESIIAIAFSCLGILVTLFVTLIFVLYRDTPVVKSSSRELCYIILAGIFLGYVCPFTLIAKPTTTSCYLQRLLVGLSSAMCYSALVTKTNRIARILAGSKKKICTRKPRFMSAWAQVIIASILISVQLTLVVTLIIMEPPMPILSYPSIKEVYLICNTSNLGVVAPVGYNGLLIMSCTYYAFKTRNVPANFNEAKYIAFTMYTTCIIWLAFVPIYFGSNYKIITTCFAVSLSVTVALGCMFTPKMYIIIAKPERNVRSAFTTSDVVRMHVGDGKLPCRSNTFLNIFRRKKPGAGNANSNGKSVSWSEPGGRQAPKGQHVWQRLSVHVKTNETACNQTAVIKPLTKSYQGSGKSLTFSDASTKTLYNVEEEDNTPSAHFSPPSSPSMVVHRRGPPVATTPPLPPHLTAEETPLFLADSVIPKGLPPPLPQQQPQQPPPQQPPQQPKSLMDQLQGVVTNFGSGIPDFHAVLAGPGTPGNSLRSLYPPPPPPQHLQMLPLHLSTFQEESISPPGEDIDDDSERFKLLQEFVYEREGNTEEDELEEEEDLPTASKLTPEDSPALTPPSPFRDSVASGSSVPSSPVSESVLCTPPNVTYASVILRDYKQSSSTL
Metabotropic glutamate receptor 4, sequence (P31423 whole entry): as the sequence (P31423 whole entry) above

SMILES: N[C@@]1(C(=O)O)CO[C@H]2[C@H](C(=O)O)[C@H]21 [LY-379268]
- EC50 ([3]; read-out: EC50): 0.6 nM
- EC50 [4]: 9 nM
- Activity [18]: 100%

SMILES: C[C@@]1(C(=O)O)C[C@H]1[C@H](N)C(=O)O
- inhibition [2]: inactive
- EC50 ([3]; read-out: EC50): 82 nM
- EC50 [4]: 1220 nM
- inhibition [5]: inactive
- Activity [20]: inactive
- EC50 ([6]; read-out: EC50): 5.21 µM
- EC50 ([6]; read-out: pEC50 (converted)): 5.13 µM
- Activity [21]: inactive
- inhibition [7]: inactive
- inhibition [8]: inactive
- inhibition [9]: inactive
- Ratio EC50 (Rattus norvegicus [22]): > 60
- inhibition [10]: inactive
- Ratio EC50 (Rattus norvegicus [23]): > 25
- EC50 ([12]; read-out: EC50): 2180 nM
- EC50 ([12]; read-out: pEC50 (converted)): 2140 nM
- EC50 ([13]; read-out: EC50): 10.6 µM
- EC50 ([13]; read-out: pEC50 (converted)): 11.2 µM
- Ratio EC50 (Rattus norvegicus [24]): > 25
- Ratio EC50 (Rattus norvegicus [25]): > 25
- Activity [26]: inactive
- Ratio EC50 (Rattus norvegicus [27]): > 60
- inhibition [14]: inactive
- inhibition [15]: inactive
- Ratio EC50 (Rattus norvegicus [28]): 15
- Ratio EC50 (Rattus norvegicus [29]): > 25

SMILES: N[C@@H](CCP(=O)(O)O)C(=O)O
- EC50 [11]: ~30 µM
- EC50 ([12]; read-out: EC50): 2500 nM
- EC50 [16]: ~30 µM
- EC50 [17]: ~30 µM

The remaining lines, values ahead:

- EC50 [1]: 9 µM
SMILES: N[C@@H](CCC(=O)O)C(=O)O [GLUTAMIC ACID]

- inhibition [2]: inactive
- EC50 ([3]; read-out: EC50): 1800 nM
- EC50 ([3]; read-out: pEC50 (converted)): 1820 nM
- EC50 [4]: > 30000 nM
- inhibition [5]: inactive
- EC50 ([6]; read-out: EC50): > 30 µM
- inhibition [7]: inactive
- inhibition [8]: inactive
- inhibition [9]: inactive
- inhibition [10]: inactive
- EC50 [11]: > 30 µM
- EC50 ([12]; read-out: EC50): 26300 nM
- EC50 ([13]; read-out: EC50): > 30 µM
- inhibition [14]: inactive
- inhibition [15]: inactive
- EC50 [16]: > 30 µM
- EC50 [17]: > 30 µM
SMILES: CC[C@@]1(C(=O)O)C[C@H]1[C@H](N)C(=O)O

- EC50 [19]: 300 nM
SMILES: N[C@H](C(=O)O)[C@@H]1C[C@H]1C(=O)O

- inhibition [2]: inactive
- Activity [30]: inactive
- Activity [31]: inactive
- inhibition [5]: inactive
- Activity [32]: inactive
- inhibition [7]: inactive
- inhibition [8]: inactive
- inhibition [9]: inactive
- Activity [33]: inactive
- inhibition [10]: inactive
- Activity [34]: inactive
- inhibition [14]: inactive
- inhibition [15]: inactive
- Activity [35]: inactive
- Activity [36]: inactive
- Activity [37]: inactive
SMILES: N[C@@H](C[C@H]1C[C@@H]1C(=O)O)C(=O)O
